In brackets after ≈: the same amount, converted by molar mass. Blank lines part the entries; values can stand above or below the compound they belong to.
How the values were obtained:
Experiment in all cases: ≥ marks a high value that may be exact or a test limit, other limits are often not marked, values filed in µg/mL are converted to µM
[1] = tested on: Trypanosoma brucei brucei GUT Tat3.1
Pseudomonas aeruginosa = tested on: Pseudomonas aeruginosa
Escherichia coli JM109 = tested on: Escherichia coli JM109
Staphylococcus aureus = tested on: Staphylococcus aureus
[2] = tested on: Staphylococcus aureus KO-4
[3] = tested on: Trichophyton mentagrophytes IFO 5466
[4] = tested on: Staphylococcus aureus ATCC 6538P
[5] = tested on: Staphylococcus epidermidis ATCC 12228
[6] = tested on: Salmonella enterica subsp. enterica serovar Newport
Candida sp. = tested on: Candida sp.
[7] = tested on: Micrococcus luteus ATCC 4698
[8] = tested on: Bacillus megaterium ATCC 17749
Fusarium oxysporum = tested on: Fusarium oxysporum
[9] = tested on: Escherichia coli 363 ATCC 11775
[10] = tested on: Vibrio alginolyticus ATCC 17749
[11] = tested on: Vibrio metschnikovii NCTC 8483
[12] = tested on: Staphylococcus aureus ATCC 25293
[13] = tested on: Staphylococcus xylosus BCRC 12930
[14] = tested on: Escherichia coli BCRC 10675
Streptococcus iniae = tested on: Streptococcus iniae
Lactococcus garvieae = tested on: Lactococcus garvieae
[15] = tested on: Vibrio alginolyticus BCRC 12829
[16] = tested on: Staphylococcus aureus BCRC 10781
[17] = tested on: Vibrio parahaemolyticus BCRC 10806
Vibrio alginolyticus = tested on: Vibrio alginolyticus
[18] = tested on: Streptococcus equinus BCRC 14729
Vibrio parahaemolyticus = tested on: Vibrio parahaemolyticus
[19] = tested on: Pseudomonas aeruginosa BCRC 10944
[20] = tested on: Staphylococcus aureus BCRC 10780
Vibrio harveyi = tested on: Vibrio harveyi
[21] = tested on: Vibrio anguillarum serotype O1
[22] = tested on: Klebsiella oxytoca BCRC 13985
[23] = tested on: Yersinia enterocolitica BCRC 13999
[24] = tested on: Listeria monocytogenes BCRC 14845
[25] = tested on: Klebsiella aerogenes BCRC 10370
[26] = tested on: Enterobacter cloacae BCRC 10401
[27] = tested on: Bacillus subtilis IFO 3336
[28] = tested on: Escherichia coli IFO 3301
[29] = tested on: Acinetobacter baumannii AYE
[30] = tested on: Staphylococcus aureus ATCC 9144
[31] = tested on: Acinetobacter baumannii ATCC 17978
Escherichia coli LEC001 = tested on: Escherichia coli LEC001
[32] = tested on: Klebsiella pneumoniae NCTC 13368
[33] = tested on: Pseudomonas aeruginosa NCTC 13437
[34] = tested on: Escherichia coli NCTC 12923
[35] = tested on: Pseudomonas aeruginosa PAO1
[36] = tested on: Staphylococcus aureus USA 300

MIC [27]: ≥ 506 µM
MIC [28]: ≥ 506 µM
Structure (SMILES): NCC(=O)N[C@@H](Cc1cnc[nH]1)C(=O)NCC(=O)N[C@@H](Cc1cnc[nH]1)C(=O)NCC(=O)N[C@@H](Cc1cnc[nH]1)C(=O)NCC(=O)N[C@@H](Cc1cnc[nH]1)C(=O)NCC(=O)N[C@@H](Cc1cnc[nH]1)C(=O)O [GHGHGHGHGH]

MIC [29]: ≥ 55.1 µM
MIC [30]: ≥ 55.1 µM
MIC [31]: ≥ 55.1 µM
MIC (Escherichia coli LEC001): ≥ 55.1 µM
MIC [32]: ≥ 55.1 µM
MIC [33]: ≥ 55.1 µM
MIC [34]: ≥ 55.1 µM
MIC [35]: > 55.1 µM
MIC [36]: ≥ 55.1 µM
Structure (SMILES): CC[C@H](C)[C@H](NC(=O)CNC(=O)[C@H](CO)NC(=O)[C@@H](N)Cc1c[nH]c2ccccc12)C(=O)N[C@@H](CCCN=C(N)N)C(=O)NCC(=O)N[C@@H](Cc1ccc(O)cc1)C(=O)N[C@@H](CCCCN)C(=O)NCC(=O)NCC(=O)N[C@@H](Cc1ccc(O)cc1)C(=O)N[C@@H](CCCCN)C(=O)NCC(=O)N[C@@H](CC(C)C)C(=O)N[C@@H](Cc1ccccc1)C(=O)N[C@@H](CCCCN)C(=O)N[C@@H](CCC(N)=O)C(=O)N[C@H](C(=O)N[C@@H](CC(N)=O)C(=O)N[C@@H](Cc1ccc(O)cc1)C(N)=O)[C@@H](C)O [WSGIRGYKGGYKGLFKQTNY]

The remaining lines, values behind:

Structure (SMILES): CC[C@H](C)[C@H](NC(=O)[C@H](C)NC(=O)[C@H](CC(C)C)NC(=O)[C@H](Cc1ccc(O)cc1)NC(=O)[C@H](CC(C)C)NC(=O)[C@H](C)N)C(=O)N[C@@H](CCCN=C(N)N)C(=O)N[C@@H](CCCN=C(N)N)C(=O)N[C@@H](CCCN=C(N)N)C(N)=O [ALYLAIRRR]
MIC [1]: ≥ 125 µM
MIC (Pseudomonas aeruginosa): 354 µM (≈ 400 µg/mL)
MIC (Escherichia coli JM109): 2.65 µM (≈ 3 µg/mL)
MIC (Staphylococcus aureus): 21.2 µM (≈ 24 µg/mL)
MIC [2]: ≥ 530 µM
MIC [3]: ≥ 53 µM
MIC [4]: 1.33 µM (≈ 1.5 µg/mL)

Structure (SMILES): CC(C)C[C@@H]1NC(=O)[C@H](CCCN=C(N)N)NC(=O)[C@H](Cc2cnc[nH]2)NC(=O)[C@H](Cc2c[nH]c3ccccc23)NC(=O)CNC(=O)CNC(=O)[C@@H](N)CSSC[C@@H](C(=O)O)NC(=O)[C@H](CCCN=C(N)N)NC1=O [CGGWHRLRC]
MIC [5]: 43 µM (≈ 46.7 µg/mL)
MIC [6]: ≥ 75 µM
MIC (Candida sp.): ≥ 59 µM
MIC [7]: 28 µM (≈ 30.4 µg/mL)
MIC [8]: ≥ 51 µM
MIC (Fusarium oxysporum): 30 µM (≈ 32.6 µg/mL)
MIC [9]: ≥ 75 µM
MIC [10]: ≥ 75 µM
MIC [11]: ≥ 75 µM
MIC [12]: ≥ 49 µM

Structure (SMILES): CC[C@H](C)[C@H](NC(=O)[C@H](Cc1ccc(O)cc1)NC(=O)[C@H](CCCCN)NC(=O)[C@H](Cc1ccc(O)cc1)NC(=O)[C@H](Cc1ccccc1)NC(=O)[C@H](CC(N)=O)NC(=O)[C@H](Cc1ccc(O)cc1)NC(=O)[C@@H](NC(=O)[C@H](Cc1ccc(O)cc1)NC(=O)[C@H](CCCCN)NC(=O)[C@H](C)NC(=O)[C@H](Cc1ccc(O)cc1)NC(=O)[C@H](CCCCN)NC(=O)[C@H](C)NC(=O)CN)[C@@H](C)CC)C(=O)N[C@@H](C)C(=O)N[C@@H](CCCCN)C(=O)N[C@@H](Cc1ccc(O)cc1)C(=O)N[C@H](C(=O)N[C@@H](Cc1c[nH]c2ccccc12)C(=O)O)[C@@H](C)CC [GAKYAKYIYNFYKYIAKYIW]
MIC [13]: 24.9 µM (≈ 64 µg/mL)
MIC [14]: 24.9 µM (≈ 64 µg/mL)
MIC (Streptococcus iniae): ≥ 49.9 µM
MIC (Lactococcus garvieae): ≥ 99.7 µM
MIC [15]: 24.9 µM (≈ 64 µg/mL)
MIC [16]: ≥ 49.9 µM
MIC [17]: 24.9 µM (≈ 64 µg/mL)
MIC (Vibrio alginolyticus): 24.9 µM (≈ 64 µg/mL)
MIC [18]: ≥ 49.9 µM
MIC (Vibrio parahaemolyticus): 24.9 µM (≈ 64 µg/mL)
MIC [19]: 24.9 µM (≈ 64 µg/mL)
MIC [20]: ≥ 49.9 µM
MIC (Vibrio harveyi): 24.9 µM (≈ 64 µg/mL)
MIC [21]: ≥ 49.9 µM
MIC [22]: ≥ 49.9 µM
MIC [23]: ≥ 99.7 µM
MIC [24]: ≥ 49.9 µM
MIC [25]: 24.9 µM (≈ 64 µg/mL)
MIC [26]: 24.9 µM (≈ 64 µg/mL)

— DBAASP
